Results on 24 molecules are retold here after patent US20230391725A1, “MODULATORS OF THE INTEGRATED STRESS RESPONSE PATHWAY” (Evotec International GmbH, priority 2020, published 2023).

pIC50: −log10 of the molar value. Where a name gives a salt, the structure may show the parent alone.

The assay has as its system ATF4. Nature of the assay: HEK-ATF4 High Content Imaging assay (prevention of Tunicamycin induced ISR). Format: cell-based. Particulars: Homo sapiens, Wild-type HEK293 cells, 6 h incubation, ATF4 signal ratio between nucleus and cytoplasm. The protocol:
Example compounds were tested in the HEK-ATF4 High Content Imaging assay to assess their pharmacological potency to prevent Tunicamycin induced ISR. Wild-type HEK293 cells were plated in 384-well imaging assay plates at a density of 12,000 cells per well in growth medium (containing DMEM/F12, 10% FBS, 2 mM L-Glutamine, 100 U/mL Penicillin—100 μg/mL Streptomycin) and incubated at 37° C., 5% CO2. 24 h later, the medium was changed to 50 μL assay medium per well (DMEM/F12, 0.3% FBS, 2mM L-Glutamine, 100 U/mL Penicillin—100 μg/mL Streptomycin). Example compounds were serially diluted in DMSO, spotted into intermediate plates and prediluted with assay medium containing 3.3 […] Tunicamycin to give an 11-fold excess of final assay concentration. In addition to the example compound testing area, the plates also contained multiples of control wells for assay normalization purposes, wells containing Tunicamycin but no example compounds (High control), as well as wells containing neither example compound nor Tunicamycin (Low control). The assay was started by transferring 5 μL from the intermediate plate into the assay plates, followed by incubation for 6 h at 37° C., 5% CO2. Subsequently, cells were fixed (4% PFA in PBS, 20 min at r.t.) and submitted to indirect ATF4 immunofluorescence staining (primary antibody rabbit anti ATF4, clone D4B8, Cell Signaling Technologies; secondary antibody Alexa Fluor 488 goat anti-rabbit IgG (H+L), Thermofisher Scientific). Nuclei were stained using Hoechst dye (Thermofisher Scientific), and plates were imaged on an Opera Phenix High Content imaging platform equipped with 405 nm and 488 nm excitation. Finally, images were analyzed using script based algorithms. The main readout HEK-ATF4 monitored the ATF4 signal ratio between nucleus and cytoplasm. Tunicamycin induced an increase in the overall ATF4 ratio signal, which was prevented by ISR modulating example compounds. In addition, HEK-CellCount readout was derived from counting the number of stained nuclei corresponding to healthy cells. This readout served as an internal toxicity control.
For the molecule `O=C(COc1ccc(Cl)c(F)c1)N[C@H]1CC[C@H](C(=O)N[C@H]2CC[C@H](OC(F)(F)F)C2)NC1` (single isomer, unassigned) [Example 53], the pIC50 was 6.30 to 9.00. Then `O=C(COc1ccc(Cl)c(F)c1)N[C@H]1CC[C@H](C(=O)N[C@@H]2CC[C@@H](OC(F)(F)F)C2)NC1` (single isomer, unassigned) [Example 54], with 5.70 to 6.30; and `O=C(COc1ccc(Cl)c(F)c1)N[C@H]1CC[C@H](C(=O)NCCCOC(F)(F)F)NC1` [Example 2, (2R,5S)-5-[2-(4-chloro-3-fluorophenoxy)acetamido]-N-[3-(trifluoromethoxy)propyl]piperidine-2-carboxamide hydrochloride], with 4.82 to 5.70. As for `O=C(COc1ccc(Cl)c(F)c1)N[C@H]1CC[C@H](C(=O)NCc2ccc(C(F)(F)F)cc2)NC1` [Example 4, (2R,5S)-5-[2-(4-chloro-3-fluorophenoxy)acetamido]-N-{[4-(trifluoromethyl)phenyl]methyl}piperidine-2-carboxamide], the pIC50 was 6.30 to 9.00.

Regarding `O=C(COc1ccc(Cl)c(F)c1)N[C@H]1CC[C@H](C(=O)N2CC(OCCOC(F)(F)F)C2)NC1` [Example 5, 2-(4-chloro-3-fluorophenoxy)-N-[(3S,6R)-6-{3-[2-(trifluoromethoxy)ethoxy]azetidine-1-carbonyl}piperidin-3-yl]acetamide], the negative logarithm of the IC50 (pIC50) was 4.82 to 5.70. As for `O=C(COc1ccc(Cl)c(F)c1)N[C@H]1CC[C@H](C(=O)NOCCOC(F)(F)F)NC1` [Example 6, (2R,5S)-5-[2-(4-chloro-3-fluorophenoxy)acetamido]-N-[2-(trifluoromethoxy)ethoxy]piperidine-2-carboxamide], the negative-log IC50 (pIC50) is 4.82 to 5.70. Then `O=C(COc1ccc(Cl)c(F)c1)N[C@H]1CC[C@H](C(=O)Nc2ccc(Cl)cc2)NC1` [Example 8, (2R,5S)-5-[2-(4-chloro-3-fluorophenoxy)acetamido]-N-(4-chlorophenyl)piperidine-2-carboxamide], with 6.30 to 9.00.

As for `O=C(COc1ccc(Cl)c(F)c1)N[C@@H]1CC[C@@H](C(=O)Nc2ccc(Cl)cc2)NC1` [Example 9, (2S,5R)-5-[2-(4-chloro-3-fluorophenoxy)acetamido]-N-(4-chlorophenyl)piperidine-2-carboxamide], the negative logarithm of the IC50 (pIC50) was 4.82 to 5.70.

In the case of `O=C(COc1ccc(Cl)c(F)c1)N[C@H]1CC[C@H](C(=O)Nc2ccccc2)NC1` [Example 10, (2R,5S)-5-[2-(4-chloro-3-fluorophenoxy)acetamido]-N-phenylpiperidine-2-carboxamide], the negative-log IC50 (pIC50) was 4.82 to 5.70. Then `O=C(COc1ccc(Cl)c(F)c1)N[C@H]1CC[C@H](C(=O)Nc2cccc(Cl)c2)NC1` [Example 11, (2R,5S)-5-[2-(4-chloro-3-fluorophenoxy)acetamido]-N-(3-chlorophenyl)piperidine-2-carboxamide], with 6.30 to 9.00; and `O=C(COc1ccc(Cl)c(F)c1)N[C@H]1CC[C@H](C(=O)Nc2cccc(C(F)(F)F)c2)NC1` [Example 12, (2R,5S)-5-[2-(4-chloro-3-fluorophenoxy)acetamido]-N-[3-(trifluoromethyl)phenyl]piperidine-2-carboxamide], with 6.30 to 9.00. The same measure for `O=C(COc1ccc(Cl)c(F)c1)N[C@H]1CC[C@H](C(=O)Nc2cccc(OC(F)(F)F)c2)NC1` [Example 13, (2R,5S)-5-[2-(4-chloro-3-fluorophenoxy)acetamido]-N-[3-(trifluoromethoxy)phenyl]piperidine-2-carboxamide]: 6.30 to 9.00; for `O=C(COc1ccc(Cl)c(F)c1)N[C@H]1CC[C@H](C(=O)NCc2ccc(Cl)cn2)NC1` [Example 14, (2R,5S)-5-[2-(4-chloro-3-fluorophenoxy)acetamido]-N-[(5-chloropyridin-2-yl)methyl]piperidine-2-carboxamide]: 4.82 to 5.70; for `O=C(COc1ccc(Cl)c(F)c1)N[C@H]1CC[C@H](C(=O)N[C@H]2CC[C@@H](OC(F)(F)F)CC2)NC1` [Example 15, (2R,5S)-5-[2-(4-chloro-3-fluorophenoxy)acetamido]-N-[(1s,4s)-4-(trifluoromethoxy)cyclohexyl]piperidine-2-carboxamide]: 4.82 to 5.70. As for `COc1cc(Cl)ccc1NC(=O)[C@H]1CC[C@H](NC(=O)COc2ccc(Cl)c(F)c2)CN1` [Example 16, (2R,5S)-N-(4-chloro-2-methoxyphenyl)-5-[2-(4-chloro-3-fluorophenoxy)acetamido]piperidine-2-carboxamide], the pIC50 was 4.82 to 5.70. On to `O=C(COc1ccc(Cl)c(F)c1)N[C@H]1CC[C@H](C(=O)NCc2ccc(C(F)(F)F)o2)NC1` [Example 17, (2R,5S)-5-[2-(4-chloro-3-fluorophenoxy)acetamido]-N-{[5-(trifluoromethyl)furan-2-yl]methyl}piperidine-2-carboxamide], for which the pIC50 was 4.82 to 5.70. Then `O=C(COc1ccc(Cl)c(F)c1)N[C@H]1CC[C@H](C(=O)NCc2cc(C(F)(F)F)co2)NC1` [Example 18, (2R,5S)-5-[2-(4-chloro-3-fluorophenoxy)acetamido]-N-{[4-(trifluoromethyl)furan-2-yl]methyl}piperidine-2-carboxamide], with 6.30 to 9.00; and `O=C(COc1ccc(Cl)c(F)c1)N[C@H]1CC[C@H](C(=O)NC[C@H]2CC[C@@H](C(F)(F)F)CC2)NC1` [Example 19, (2R,5S)-5-[2-(4-chloro-3-fluorophenoxy)acetamido]-N-{[(1s,4s)-4-(trifluoromethyl)cyclohexyl]methyl}piperidine-2-carboxamide], with 4.82 to 5.70.

Take `COc1cccc(NC(=O)[C@H]2CC[C@H](NC(=O)COc3ccc(Cl)c(F)c3)CN2)c1` [Example 20, (2R,5S)-5-[2-(4-chloro-3-fluorophenoxy)acetamido]-N-(3-methoxyphenyl)piperidine-2-carboxamide]: the negative-log IC50 (pIC50) was 4.82 to 5.70. Consider `O=C(COc1ccc(Cl)c(F)c1)N[C@H]1CC[C@H](C(=O)Nc2ccc(F)c(C(F)(F)F)c2)NC1` [Example 21, (2R,5S)-5-[2-(4-chloro-3-fluorophenoxy)acetamido]-N-[4-fluoro-3-(trifluoromethyl)phenyl]piperidine-2-carboxamide], for which the pIC50 was 6.30 to 9.00. For `O=C(COc1ccc(Cl)c(F)c1)N[C@H]1CC[C@H](C(=O)Nc2cncc(C(F)(F)F)c2)NC1` [Example 22, (2R,5S)-5-[2-(4-chloro-3-fluorophenoxy)acetamido]-N-[5-(trifluoromethyl)pyridin-3-yl]piperidine-2-carboxamide], the negative logarithm of the IC50 (pIC50) is 6.30 to 9.00. As to `O=C(COc1ccc(Cl)c(F)c1)N[C@H]1CC[C@H](C(=O)Nc2cccc(F)c2)NC1` [Example 23, (2R,5S)-5-[2-(4-chloro-3-fluorophenoxy)acetamido]-N-(3-fluorophenyl)piperidine-2-carboxamide], the negative-log IC50 (pIC50) is 5.70 to 6.30.

Take `O=C(COc1ccc(Cl)c(F)c1)N[C@H]1CC[C@H](C(=O)Nc2cccc(C(F)F)c2)NC1` [Example 24, (2R,5S)-5-[2-(4-chloro-3-fluorophenoxy)acetamido]-N-[3-(difluoromethyl)phenyl]piperidine-2-carboxamide]: the pIC50 was 6.30 to 9.00. Turning to `O=C(COc1ccc(Cl)c(F)c1)N[C@H]1CC[C@H](C(=O)Nc2ccc(Cl)cn2)NC1` [Example 25, (2R,5S)-5-[2-(4-chloro-3-fluorophenoxy)acetamido]-N-(5-chloropyridin-2-yl)piperidine-2-carboxamide], the pIC50 is 5.70 to 6.30.

Usually pIC50 stands for −log10 of the IC50, conventionally taken in molar units.
